Values of other authors as cited in paper PMC10814857, “Functional Classification and Interaction Selectivity Landscape of the Human SH3 Domain Superfamily” (Cells, 2024).
Read-outs that look alike come from different tables or passages of the source.

Tests used:
GRB2-2 SH3 domain = details: Table S4, cited from earlier work
Experimental: (§1) page 6: […] […] […] PAK2 […] PXXXPR PXXXPR 1.05 ITC [34] TRSVI ITSN1-2 Synthetic […] Exceptional [W/F][R/W]xSx[A/ 53 ITC [29] peptide G][F/Y][L/V]xGP[ W/L] NCK1-2 N-WASP GP[…] … 147 HSQC [64] VA[…] 199 PLCG1 SOS1 AAPV[…] … 0.20mM SPR [75] AADS[…] 0.40mM AAES[…] 0.70mM AAIA[…] 0.28mM BAIAP2L1 EspFUR45 IPP[…] … 0.5 nM ITC [76] (IRTKS) 9 SORBS2- Synthetic […] Exceptional XRXGXAYLXYVX 38 ITC [29] 1 peptide Synthetic RL[…](L/P) ...

GRAP2-2 SH3 domain = details: GRAP2-2, ITC, Table S4, cited from earlier work
Experimental: as §1

PLCG1 SH3 domain = details: PLCG1, SPR, Table S4; ref [75]; cited from earlier work
Experimental: as §1

FYN SH3 domain = target: FYN SH3 domain; design: method as in ref [73] (a number printed in a supplementary file, which may have a reference list of its own: not looked up in the article's list); details: HSQC, Table S4, ref [73], cited from earlier work
SRC SH3 domain = target: SRC SH3 domain; design: method as in 3 sources, one per row (each row's own in cited_ref): ref [23] (a number printed in a supplementary file, which may have a reference list of its own: not looked up in the article's list) ||| ref [62] (a number printed in a supplementary file, which may have a reference list of its own: not looked up in the article's list) ||| ref [17] (a number printed in a supplementary file, which may have a reference list of its own: not looked up in the article's list); details: FL, cited from earlier work
GRB2-1 SH3 domain = details: Table S4, cited from earlier work
Experimental: as §1

NCK1-1 SH3 domain = details: NCK1-1, HSQC, Table S4; ref [64]; cited from earlier work
[1] = target: NCF1-2 (p47phox) SH3 domain; design: method as in ref [14] (a number printed in a supplementary file, which may have a reference list of its own: not looked up in the article's list); details: FL, Table S4, ref [14]; cited from earlier work
CRK-1 SH3 domain [2] = target: CRK-1 SH3 domain; design: method as in ref [71] (a number printed in a supplementary file, which may have a reference list of its own: not looked up in the article's list); details: CRK-1, SPR, Table S4; ref [71]; cited from earlier work
CRK-1 SH3 domain [3] = target: CRK-1 SH3 domain; design: method as in 3 sources, one per row (each row's own in cited_ref): ref [15] (a number printed in a supplementary file, which may have a reference list of its own: not looked up in the article's list) ||| ref [69] (a number printed in a supplementary file, which may have a reference list of its own: not looked up in the article's list) ||| ref [17] (a number printed in a supplementary file, which may have a reference list of its own: not looked up in the article's list); details: CRK-1, FL, Table S4, cited from earlier work
SORBS2-1 SH3 domain = details: SORBS2-1, ITC, Table S4; ref [29]; cited from earlier work
Experimental: as §1

ABL1 SH3 domain = target: ABL1 SH3 domain; design: method as in ref [67] (a number printed in a supplementary file, which may have a reference list of its own: not looked up in the article's list); details: ABL1, FL, Table S4; ref [67]; cited from earlier work
p85A SH3 domain = target: p85A SH3 domain; design: method as in ref [3] (a number printed in a supplementary file, which may have a reference list of its own: not looked up in the article's list); details: SPR, Table S4, ref [3]; cited from earlier work
STAC1 SH3 domain = details: STAC1, ITC, Table S4; ref [59]; cited from earlier work
Experimental: as §1

STAC2 SH3 domain = details: STAC2, ITC, Table S4; ref [59]; cited from earlier work
Experimental: as §1

NCK1-3 SH3 domain = details: NCK1-3, HSQC, Table S4; ref [64]; cited from earlier work
Experimental: (§2) page 6: […][…] […] PAK2 […] PXXXPR PXXXPR 1.05 ITC [34] TRSVI ITSN1-2 Synthetic […] Exceptional [W/F][R/W]xSx[A/ 53 ITC [29] peptide G][F/Y][L/V]xGP[ W/L] NCK1-2 N-WASP GP[…] … 147 HSQC [64] VA[…] 199 PLCG1 SOS1 AAPV[…] … 0.20mM SPR [75] AADS[…] 0.40mM AAES[…] 0.70mM AAIA[…] 0.28mM BAIAP2L1 EspFUR45 IPP[…] … 0.5 nM ITC [76] (IRTKS) 9 SORBS2- Synthetic […] Exceptional XRXGXAYLXYVX 38 ITC [29] 1 peptide Synthetic RL[…](L/P) ...

[4] = target: bPIX (ARHGEF7) SH3 domain; design: method as in 3 sources, one per row (each row's own in cited_ref): ref [33] (a number printed in a supplementary file, which may have a reference list of its own: not looked up in the article's list) ||| ref [60] (a number printed in a supplementary file, which may have a reference list of its own: not looked up in the article's list) ||| ref [34] (a number printed in a supplementary file, which may have a reference list of its own: not looked up in the article's list); details: ITC, cited from earlier work
EPS8L1 SH3 domain = target: EPS8L1 SH3 domain; design: method as in ref [7] (a number printed in a supplementary file, which may have a reference list of its own: not looked up in the article's list); details: EPS8L1, ITC, Table S4; ref [7]; cited from earlier work
NCK1-2 SH3 domain = details: NCK1-2, HSQC, Table S4; ref [64]; cited from earlier work
Experimental: as §2

Sequence: IQPPPVNRNLKPDRK [published Gab2b peptide]
- Kd (GRB2-2 SH3 domain; GRB2-2, ITC, ref [48]): 17.4 µM

Sequence: APSIDRSTKPP [published SLP-76 peptide]
- Kd (GRAP2-2 SH3 domain; ref [55]): 0.675 µM

Sequence: AADSPPAIPPRQPT [published SOS1 peptide]
- Kd (PLCG1 SH3 domain): 0.4 µM

Sequence: PPRPTPVAPGSSKA [published PI3K-p85a peptide]
- Kd (FYN SH3 domain): 0.3 mM

Sequence: VSLARRPLPPLP [published peptide VSL12]
- Kd (SRC SH3 domain; Table S4, ref [23]): 0.45 µM

Sequence: PPRPLPVAPGSSKA [published PI3K-p85a peptide]
- Kd (FYN SH3 domain): 0.05 mM

Sequence: VPPPVPPRRR [published SOS1 peptide]
- Kd (GRB2-1 SH3 domain; GRB2-1, FL, ref [77]): 5.6 µM

Sequence: LRRQAPPPPPPS [published N-WASP peptide]
- Kd (NCK1-1 SH3 domain): > 1000 µM

Sequence: QPPSNPPPRPPAEARKKPSE [published p22phox peptide]
- Kd [1]: 0.64 µM

Sequence: DVADVPPPLPLKGSVADYGNLMENQDLLGSPTPPPPPPHQRHLPPPLPSKT [published DOCK180 peptide]
- Kd (CRK-1 SH3 domain [2]): 0.35 µM

Sequence: PVPPPVPPRRRP [published SOS1 peptide]
- Kd (GRB2-1 SH3 domain; GRB2-1, ITC, ref [78]): 38.6 µM
- Kd (GRB2-1 SH3 domain; GRB2-1, NMR, ref [47]): 37 µM
- Kd (GRB2-2 SH3 domain; GRB2-2, ITC, ref [78]): 117 µM
- Kd (GRB2-2 SH3 domain; GRB2-2, NMR, ref [47]): 142 µM

Sequence: PPPVPPRRRR [published SOS1 peptide]
- Kd (CRK-1 SH3 domain [3]; ref [15]): 5.2 µM
- Kd (GRB2-1 SH3 domain; GRB2-1, FL, ref [15]): 3.5 µM

Sequence: LRTGEAYLRYVD [published synthetic peptide (SORBS2-1 ligand)]
- Kd (SORBS2-1 SH3 domain): 38 µM

Sequence: APTYSPPPPP
- Kd (ABL1 SH3 domain): 0.4 µM

Sequence: HSKRPLPPLPSL [published peptide PD1R]
- Kd (p85A SH3 domain): 40 µM

Sequence: TAAPPPPPPSRP [published N-WASP peptide]
- Kd (NCK1-1 SH3 domain): > 1000 µM

Sequence: PSIDRSTKP [published SLP-76 peptide]
- Kd (GRAP2-2 SH3 domain; ref [57]): 30 µM

Sequence: AAPVPPPVPPRRRP [published SOS1 peptide]
- Kd (PLCG1 SH3 domain): 0.2 µM

Sequence: RAPTMPPPLPP [published 3BP-1 peptide]
- Kd (ABL1 SH3 domain): 34 µM

Sequence: NVNEVKDPYPSADFPGDDEEDEPEIPLSPRPRPLAELQLKEKAVPIPE [published CaV1.1 peptide]
- Kd (STAC1 SH3 domain): 0.78 µM
- Kd (STAC2 SH3 domain): 1.85 µM

Sequence: SAPSGPPPPPPSVL [published N-WASP peptide]
- Kd (NCK1-1 SH3 domain): > 1000 µM
- Kd (NCK1-3 SH3 domain): > 1 µM

Sequence: DSPPAIPPRQPT [published SOS1 peptide]
- Kd (GRB2-1 SH3 domain; GRB2-1, ITC, ref [79]): 55 µM

Sequence: RLPLRPPLPHTS [published synthetic peptide (SORBS2-1 ligand)]
- Kd (SORBS2-1 SH3 domain): 121 µM

Sequence: EETAPPVIAPRPDHTKSIYTRSVI [published PAK2 peptide]
- Kd ([4]; Table S4, ref [34]): 1.05 µM

Sequence: RALPPLPRY [published synthetic peptide (SRC ligand)]
- Kd (SRC SH3 domain; Table S4, ref [62]): 7.8 µM

Sequence: APPPPPPSRGG [published N-WASP peptide]
- Kd (NCK1-1 SH3 domain): > 1000 µM

Sequence: KPSRPPRPSRPPPPTPRRPAS [published Itch peptide]
- Kd ([4]; Table S4, ref [33]): 1.59 µM

Sequence: APSYSPPPPP
- Kd (ABL1 SH3 domain): 1.5 µM

Sequence: NENEDKSPYPNPETTGEEDEEEPEMPVGPRPRPLSELHLKEKAVPMPE [published CaV1.2 peptide]
- Kd (STAC2 SH3 domain): 19.3 µM

Sequence: PPVPNPDYEPIR [published CD3ε peptide]
- Kd (EPS8L1 SH3 domain): 24 µM

Sequence: NRMYPPPPPALP [published N-WASP peptide]
- Kd (NCK1-3 SH3 domain): > 1 µM

Sequence: QPPSNPPPRPPAEAR [published p22phox peptide]
- Kd [1]: 8.67 µM

Sequence: GPPPPPARGRGA [published N-WASP peptide]
- Kd (NCK1-1 SH3 domain): > 1000 µM
- Kd (NCK1-2 SH3 domain): 147 µM

Sequence: KRISPPTPKPRPPR [published PI3K-p85a peptide]
- Kd (FYN SH3 domain; unit mM in the cell): 0.003 mM

Sequence: AAIAGPPVPPRQST [published SOS1 peptide]
- Kd (PLCG1 SH3 domain): 0.28 µM

Sequence: PSPHGTRRHLPSPP [published SOS1 peptide]
- Kd (GRB2-1 SH3 domain; GRB2-1, NMR, ref [47]): 208 µM

Sequence: ESPPLLPPREPV [published SOS1 peptide]
- Kd (GRB2-1 SH3 domain; GRB2-1, ITC, ref [79]): 117 µM

Sequence: HSKYPLPPLPSL [published peptide PD1]
- Kd (p85A SH3 domain): 120 µM

Sequence: IAGPPVPPRQST [published SOS1 peptide]
- Kd (GRB2-1 SH3 domain; GRB2-1, ITC, ref [79]): 82 µM

Sequence: VAPPPPPPPPPPPG [published N-WASP peptide]
- Kd (NCK1-3 SH3 domain): > 1 µM

Sequence: AAESPPLLPPREPV [published SOS1 peptide]
- Kd (PLCG1 SH3 domain): 0.7 µM

Sequence: EDEPEIPLSPRPRP [published CaV1.1 peptide]
- Kd (STAC1 SH3 domain): 3.92 µM
- Kd (STAC2 SH3 domain): 9.31 µM

Sequence: PGPPPPPGLPSD [published N-WASP peptide]
- Kd (NCK1-3 SH3 domain): > 1 µM

Sequence: APPLPPRNRPRL [published peptide APP12]
- Kd (SRC SH3 domain; Table S4, ref [23]): 1.2 µM

Sequence: YEVPPPVPPRRR [published SOS1 peptide]
- Kd (CRK-1 SH3 domain [3]; ref [17]): 6 µM
- Kd (SRC SH3 domain; Table S4, ref [17]): 25 µM
- Kd (GRB2-1 SH3 domain; GRB2-1, FL, ref [17]): 5 µM

Sequence: PPPALPPKKR [published C3G peptide]
- Kd (CRK-1 SH3 domain [3]; ref [15]): 1.9 µM
- Kd (CRK-1 SH3 domain [3]; ref [69]): 1.89 µM
- Kd (GRB2-1 SH3 domain; GRB2-1, FL, ref [15]): 142 µM

Sequence: APTYPPPAPP
- Kd (ABL1 SH3 domain): 5 µM

Sequence: SLPGPLTPVAEGQEIGMNTETSGTSAREKELSPPPGLPSKIGSISRQSSL [published ST12 peptide]
- Kd (CRK-1 SH3 domain [2]): 0.91 µM

Sequence: PKPLPRFPKK [published SOS1 peptide]
- Kd (GRB2-1 SH3 domain; GRB2-1, NMR, ref [47]): 250 µM

Sequence: VAVPPPPPNRMY [published N-WASP peptide]
- Kd (NCK1-2 SH3 domain): 199 µM
- Kd (NCK1-3 SH3 domain): 1 µM

Sequence: PAPSIDRSTKPPL [published SLP-76 peptide]
- Kd (GRAP2-2 SH3 domain; ref [55]): 0.181 µM
- Kd (GRB2-2 SH3 domain; GRB2-2, ITC, ref [55]): 9.7 µM

Sequence: PKLPPKTYKREH [published SOS1 peptide]
- Kd (GRB2-2 SH3 domain; GRB2-2, NMR, ref [47]): 156 µM
